This is an account of results in patent publication US20110098296A1, “Thiazole And Oxazole Kinase Inhibitors” (priority 2007, published 2011).

Common to all, as to type: cell-based
For one assay, the system named is Colo205 tumor cells. Put plainly: Method A: Methylene Blue Growth Inhibition Assay, Colo205. Particulars: Homo sapiens, COLO 205, 72 h, 3 days.
A further assay deals with BT474 tumor cells. Put plainly: Method B: CellTiter-Glo Growth Inhibition Assay, BT474. Particulars: Homo sapiens, BT-474, 72 h, 3 days. Summed up: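 Cells plated (BT474 3,000, HN5 500, Colo205 3,000 per well) in RPMI or DMEM with 10% FBS; compounds added next day, final DMSO 0.3%, then 3 days at 37° C, 5% CO2. Viability by CellTiter-Glo luminescence; percent inhibition versus vehicle, IC50 interpolated by nonlinear regression.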

For the next assay, the system named is HN5 tumor cells. Put plainly: Method A: Methylene Blue Growth Inhibition Assay, HN5. Particulars: Homo sapiens, 72 h, 3 days. Summed up: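 BT474 (10,000/well) and HN5 (3,000/well) cells plated, dosed next day in DMEM (0.3% DMSO final) and grown 3 days at 37° C. Biomass read as methylene blue OD 620 nm; growth inhibition relative to vehicle, IC50 by nonlinear regression.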

What is called IC50 is the midpoint of a concentration-inhibition curve. Higher therefore signals weaker potency. For `COc1cc(Nc2nccc(-c3sc(N)nc3-c3cccc(NC(=O)c4c(F)cccc4F)c3)n2)cc(OC)c1OC` [Example 16, N-[3-(2-Amino-5-{2-[(3,4,5-trimethoxyphenyl)amino]pyrimidiN-4-yl}-1,3-thiazol-4-yl)phenyl]-2,6-difluorobenzamide], the IC50 in the assay on Colo205 tumor cells was under 100 nM.

In the assay on BT474 tumor cells, `Cc1nc(-c2cccc(NC(=O)c3cc(F)ccc3F)c2)c(-c2ccnc(Nc3ccc(OCCN(C)C)c(Cl)c3)n2)o1` [Example 142] returned an IC50 of over 1000 nM.

In the case of `COc1ccc(Nc2nccc(-c3sc(N)nc3-c3cccc(NC(=O)c4c(F)cccc4F)c3)n2)cc1N1CCNCC1` [Example 18, N-[3-(2-Amino-5-{2-[(4-methoxy-3-piperaziN-1-ylphenyl)amino]pyrimidiN-4-yl}-1,3-thiazol-4-yl)phenyl]-2,6-difluorobenzamide], the IC50 in the assay with HN5 tumor cells was under 100 nM.
